In patent US8354381B2, “Peptide compositions for oral care systems” (E I du Pont de Nemours and Company, priority 2009, dated 2013):
Where no end group is shown, it is not given here. The star is where a group is joined. Biotin = O=C1N[C@H]2[C@H](CS[C@H]2CCCCC(=O)*)N1

B1: PSSRPTTYHYKNIYQESYQQRNPAVGPEEAAKKEEAAKKPASSRPTTYHYKNIYQESYQQRNPAVGSSGPGSSKQPNKQPNKQPNKQPNKQPNKQPNKQPNKQPNKQPNGPHHHHHH (peptide)
chain: PSSRPTTYHYKNIYQESYQQRNPAVGPEEAAKKEEAAKKPASSRPTTYHYKNIYQESYQQRNPAVGSSGPGSSKQPNKQPNKQPNKQPNKQPNKQPNKQPNKQPNKQPNGPHHHHHH
B2: PSSSRPTTYHYKNIYQESYQQRNPAVGPEEAAKKEEAAKKPASSRPTTYHYKNIYQESYQQRNPAVGPHHHHHH (peptide)
chain: PSSSRPTTYHYKNIYQESYQQRNPAVGPEEAAKKEEAAKKPASSRPTTYHYKNIYQESYQQRNPAVGPHHHHHH
B3: PGSGGGGSPYSETPNDQKPNPHYKVSGTKGPEEAAKKEEAAKKPAYSETPNDQKPNPHYKVSGTKGPGGHHHHHH (peptide)
chain: PGSGGGGSPYSETPNDQKPNPHYKVSGTKGPEEAAKKEEAAKKPAYSETPNDQKPNPHYKVSGTKGPGGHHHHHH
modifications: Synthetic peptide composition
B4: PGSGGGGSPYSETPNDQKPNPHYKVSGTKGGGYSETPNDQKPNPHYKVSGTKGGGYSETPNDQKPNPHYKVSGTKGPGGHHHHHH (peptide)
chain: PGSGGGGSPYSETPNDQKPNPHYKVSGTKGGGYSETPNDQKPNPHYKVSGTKGGGYSETPNDQKPNPHYKVSGTKGPGGHHHHHH
modifications: Synthetic peptide composition
B5: PGSGGGGSPYSETPNDQKPNPHYKVSGTKGPEPEPEPEPIPEPPKEAPVVIEKPKPKPKPKPKPPAYSETPNDQKPNPHYKVSGTKGPGGHHHHHH (peptide)
chain: PGSGGGGSPYSETPNDQKPNPHYKVSGTKGPEPEPEPEPIPEPPKEAPVVIEKPKPKPKPKPKPPAYSETPNDQKPNPHYKVSGTKGPGGHHHHHH
modifications: Synthetic peptide composition

System: pellicle-coated enamel substrates
Assay: Tooth whitening with sequentially applied peptide and silica-coated TiO2, colour measurement
Set-up: species or system bovine
Conditions: 20 μM peptide 30 min, then 1% silica-coated TiO2 30 min; three replicate teeth
Description: Silica-coated rutile titanium dioxide (Luce II WW) was obtained from US Cosmetics Corp. (Dayville, Conn.). A 12 wt % solution of the pigment was prepared with Millipore water. The solution was dispersed by horn sonication using a Branson Sonifier 150 at 10 W. The solution was sonicated in an ice bath for 6 min total, with 2 min sonication intervals. A working solution of 1 wt % in 10 mM sodium phosphate buffer at pH7.2 was made for application to peptide coated enamel. A 0.01% solution of this dispersion diluted in the same buffer was measured on a Malvern Zetasizer Nano dynamic light scattering instrument.
Bovine enamel incisors were obtained from SE Dental (Baton Rouge, La.). Teeth were sectioned and cut into enamel slabs approx. 7 mm on each side using a DREMEL® saw with a diamond blade. The enamel slabs were cleaned and lightly polished to remove surface debris. The enamel was pretreated with a mixture of coffee and tea in order to stain to a color similar to human stained teeth. Each enamel block was then mounted on wax mounting and sterilized with ethylene oxide. […] The mounted enamel blocks were brushed with a toothbrush and a 1:2 dilution of COLGATE® MAXFRESH® toothpaste (Colgate-Palmolive Co., New York, N.Y.) and then reinserted into the mouth for 1 minute. […] Each pellicle coated enamel slab was measured for color using a Konica-Minolta 2600d integrating sphere spectrophotometer.
Peptides listed in Table 15 were dissolved into pH 7.2 PBS buffer at a concentration of 20 μM. Three replicate teeth were used for each experimental condition. Each tooth was incubated with peptide solution for 30 min or buffer alone as a control. The enamel blocks were removed from the peptide solution and rinsed with PBS buffer. The enamel blocks were then incubated in the 1% solution of silica-coated TiO2 for 30 min. The enamel blocks were removed, rinsed with 10 mM phosphate buffer and blotted dry. Each substrate was measured for color (L, a*, b*, C*, h) values. The total color difference, Delta E*ab and the Metric Hue Difference, Delta H*ab, for the whitening process were calculated using equations (1) and (2) below: Delta E*ab=((L*1−L*2)^2+(a*1−a*2)^2+(b*1−b*2)^2)^1/2 (1) Delta H*ab=(2(C*1C*2−a*1a*2−b*1b*2))^1/2 (2) where L*=the lightness variable, a* and b* are the chromaticity coordinates and C* is the chroma of CIELAB colorspace as defined by the International Commission of Illumination (CIE) and described in ASTM D2244-09b and subscript 1 denotes the initial color value and subscript 2 denotes the final color value.

With B1 as the molecule, how does the “Delta E*ab Avg” value read?
The value was 10.70.

What about the “Delta H*ab Avg” value of the same molecule?
Its value is 2.93.

For B2, which “Delta E*ab Avg” value is on record?
The value was 6.78.

And the “Delta H*ab Avg” value?
Its value is 1.60.

System: Pellicle Surface
Assay: not given
Conditions: read-out: MB50; biotinylated peptide, 30 min in vivo pellicle on enamel, from Scatchard plots
Description: The pellicle coated enamel substrates were removed from the wax backing and placed in well plates with the pellicle surface exposed as in Example 5. […] The blocking buffer was removed by aspirating the liquid out of each well. […] The samples were incubated for 30 min with slow shaking at 37° C. The non-binding peptide was removed by washing 6 times with PBST. […] The conjugate solution was removed and was washed 4 times with PBST.
Each enamel substrate was removed from the well and washed again in a 15-mL test tube with 10 mL of PBST. Each enamel substrate was then mounted in a clean well plate with only the enamel surface exposed.

Which EC50 does the source give for “SSRPHKNENIMQYNVNDRWHITPAK(Biotin) [DenP32-A]” here?
Its EC50 is 25 µM.

For “SSRPTTYHYKNIYQESYQQRNPAVK(Biotin) [DenP3-A]”, which EC50 is on record?
The EC50 was 28 µM.

System: not listed separately
Assay: Phage ELISA, bovine enamel-binding assay
Conditions: over 10^10 pfu phage, unpolished bovine enamel, A450
Description: (§1) A total of 11 selected phage candidates (Example 3) was used in a phage ELISA experiment. Purified phage lysates were used for binding to the enamel blocks using an anti-M13 phage antibody conjugated to horseradish-peroxidase, followed by the addition of chromogenic agent TMB. The plates were read at A450 nm.
(§2) For each phage candidate to be tested, the polished and unpolished enamel blocks were incubated for 1 h at room temperature with 200 μL of blocking buffer, consisting of 2% non-fat dry milk (Schleicher & Schuell, Inc.) in TBS. […] The tube was rinsed 6 times with wash buffer consisting of TBST-0.05%. The wells were filled with 200 μL of TBST-0.5% containing 1 mg/mL BSA and then 10 μL (over 10^10 pfu) of purified phage stock was added. The samples were incubated at room temperature for 60 min with slow shaking. The non-binding phage was removed by washing 6 times with TBST-0.5%. […] The conjugate solution was removed and was washed 6 times with TBST-0.5%. […] BoEn P means bovine polished enamel and BoEn means bovine enamel.

Which O.D.450 does the source give for “SDCTAGLVPPLCAT (Synthetic oral-surface binding peptide) [BoEn 7]” here?
Its O.D.450 is 0.892.

With “AANPHTEWDRDAFQLAMPPK (Synthetic oral-surface binding peptide) [BoEn 1]” as the molecule, how does the O.D.450 read?
The O.D.450 was 1.402.

Which O.D.450 does the source give for “NTCATSPNSYTCSN (Synthetic oral-surface binding peptide) [BoEn 6]” here?
Its O.D.450 is 2.38.

Which O.D.450 does the source give for “LNDQRKPGPPTMPTHSPAVG (Synthetic oral-surface binding peptide) [BoEn 5]” here?
Its O.D.450 is 0.944.

Which O.D.450 does the source give for “YSETPNDQKPNPHYKVSGTK (Synthetic oral-surface binding peptide) [BoEn 10]” here?
The O.D.450 was 3.942.

For “VGTMKQHPTTTQPPRVSATN (Synthetic oral-surface binding peptide) [BoEn 9]”, which O.D.450 is on record?
Its O.D.450 is 0.568.

System: not listed separately
Assay: Phage ELISA, bovine polished enamel-binding assay
Conditions: over 10^10 pfu phage, A450
Description: as §1, §2

For “THNMSHFPPSGHPKRTAT (Synthetic oral-surface binding peptide) [BoEn P8]”, which O.D.450 is on record?
The O.D.450 was 2.02.

For “NTCQPTKNATPCSA (Synthetic oral-surface binding peptide) [BoEn P6]”, which O.D.450 is on record?
The O.D.450 was 0.83.

With “GYCLRGDEPAVCSG (Synthetic oral-surface binding peptide) [BoEn P3]” as the molecule, how does the O.D.450 read?
The O.D.450 was 0.665.

For “EPPTRTRVNNHTVTVQAQQH (Synthetic oral-surface binding peptide) [BoEn P2]”, which O.D.450 is on record?
The O.D.450 was 0.641.

With “NFCETQLDLSVCTV (Synthetic oral-surface binding peptide) [BoEn P5]” as the molecule, how does the O.D.450 read?
The O.D.450 was 0.797.

System: pellicle coated enamel substrates
Assay: not given
Conditions: 20 μM biotinylated peptide, streptavidin-HRP, normalized to DenP03, three replicates
Description: A total of 20 synthetic peptides were manufactured using sequences obtained from Table 6. Peptides were obtained from SynBioSci Corp. (Livermore, Calif.) and included an additional sequence (SSRP; SEQ ID NO: 118) at the N-terminus and biotin labeled lysine at the C-terminus.
Enamel substrates were cut into approximately 7 mm squares and mounted on wax mounting for incubation in the mouth for 30 min to form a pellicle coated surface. The pellicle coated enamel substrates were removed from the wax backing and placed in well plates with the pellicle surface exposed as in Example 5. Each pellicle coated substrate was incubated for 1 h at room temperature (˜22° C.) with 1 mL of blocking buffer, consisting of 1 mg/mL BSA in PBST (Pierce BUPH™ #28372 with 0.1% TWEEN® 20). The blocking buffer was removed by aspirating the liquid out of each well. The tube was rinsed 2 times with wash buffer consisting of PBST. The wells were filled with 500 μL of 20 μM peptide solution which was prepared by diluting in blocking buffer. The samples were incubated for 30 min with slow shaking at 37° C. The non-binding peptide was removed by washing 6 times with PBST. Then, 500 μL of horseradish peroxidase/streptavidin conjugate (Pierce #22127), diluted 1:2000 in PBST, was added and incubated for 1 h at room temperature (˜22° C.). The conjugate solution was removed and was washed 4 times with PBST.
Each enamel substrate was removed from the well and washed again in a 15-mL test tube with 10 mL of PBST. Each enamel substrate was then mounted in a clean well plate with only the enamel surface exposed. A 1:1 solution of TMB substrate and H2O2 (200 μL) was added to each well and the color was allowed to develop for between 10 to 20 min, typically for 15 min, at room temperature (˜22° C.). Then, 100 μL of solution from each well was transferred to a 96 well reading plate containing stop solution (100 μL of 2 M H2SO4) in each well. The A450 was measured using a microplate spectrophotometer (Molecular Devices, Sunnyvale, Calif.). […] Each sequence was tested with three replicate enamel coated pellicle substrates.

For “SSRPHKNENIMQYNVNDRWHITPAK(Biotin) [DenP32-A]”, which “O.D.450 (normalized)” value is on record?
The value was 1.135.

With “SSRPTTYHYKNIYQESYQQRNPAVK(Biotin) [DenP3-A]” as the molecule, how does the “O.D.450 (normalized)” value read?
The value was 1.000.

System: not listed separately
Assay: Peptide-mediated deposition of Co-NTA beads on bovine enamel, SEM
Format: binding
Conditions: 20 μM peptide, Co-NTA beads, SEM 1000×, 2500×, 5000×
Text: Bovine enamel incisors were obtained from SE Dental (Baton Rouge, La.). Teeth were sectioned and cut into enamel slabs approx. 5 mm on each side using a DREMEL® rotary (Robert Bosch LLC, Farmington Hills, Mich.) saw with a diamond blade. The enamel slabs were cleaned and embedded in a well plate contained molding material so as to only expose the enamel surface in the well.
Polystyrene beads with cobalt-NTA coating (DYNABEADS® TALON®) were obtained from Invitrogen (item#101.02D) as a slurry of 40 mg/mL. The slurry (50 μL; 2 mg beads) was resuspended and washed with 700 μL of binding buffer (50 mM sodium phosphate, pH 8.0, 300 mM NaCI, 0.01% TWEEN® 20) in preparation for His6 binding.
Peptides were dissolved in phosphate buffered saline (Pierce, pH 7.2) at a concentration of 20 μM. Peptide solution (500 μL) was placed in each well containing an enamel slab. Enamel slabs exposed to only PBS in this step were used as a control. Samples were incubated with peptide solution with gentle agitation for 30 min. The peptide solution and PBS were removed from the well plate and each well was rinsed 3 times with repeated additions of PBS. TALON® beads (50 μL) were added to each well and incubated with gentle agitation for 30 min. The TALON® solution was removed and the samples were washed three times with the same binding buffer.
Each enamel sample was removed from the well plate and rinsed again with buffer. […] The enamel slabs were further examined by Electron Microscopy (Hitachi TM-1000 Tabletop SEM Microscope) at 1000×, 2500× and 5000× magnification. […] Little to no beads were found on the no peptide control. […]

Which “Bead coverage by electron microscopy (in words)” value does the source give for B3 here?
The value was “bead binding at a lower degree than the other samples”.

Same assay, conditions: 20 μM peptide, then Co-NTA TALON beads; SEM at 5000X

With “PHMASMTGGQQMGSYSETPNDQKPNPHYKVSGTKGPEEAAKKEEAAKKPAYSETPNDQKPNPHYKVSGTKGSGGGGSGSGGGGSLNSMSDKHHGHQNTATRNQHGGGLNSMSDKHHGHQNTATRNQHGGHHHHHH [DE008]” as the molecule, how does the “Particles per um^2 at 5000X” value read?
Its value is 0.31 Particles per um^2.

For B4, which “Particles per um^2 at 5000X” value is on record?
Its value is 0.44 Particles per um^2.

Which “Particles per um^2 at 5000X” value does the source give for B3 here?
The value was 0.17 Particles per um^2.

Which “Particles per um^2 at 5000X” value does the source give for B5 here?
The value was 0.39 Particles per um^2.
